ChEMBL document CHEMBL3120142 (J Med Chem, 2014)
Converted amounts (≈) assume the structure as drawn. The source made the active and inactive calls. The calls are words filed in the database; no cut-off is given here.

Tests used:
[1] = system: MDCK; experiment: Cytotoxicity against MDCK cells assessed as cell viability after 72 hrs; assay type: cell-based, Canis lupus familiaris; conditions: dog
[2] = in vivo; conditions: Sprague-Dawley, rat, po, 50 mg/kg
[3] = in vivo; conditions: Sprague-Dawley, rat, iv, 10 mg/kg
Description: Half life in Sprague-Dawley rat at 10 mg/kg, iv by LC-MS/MS analysis

[4] = system: Influenza A virus; experiment: Antiviral activity against Influenza A virus H3N2; assay type: functional, organism-based
[5] = Cmax in Sprague-Dawley rat at 50 mg/kg, po by LC-MS/MS analysis; assay type: ADME, organism-based; parameters: dose 50 mg/kg, route oral; conditions: in vivo
[6] = Chemical stability of the compound in phosphate buffer saline at pH 2.0 to 9.0; assay type: physicochemical
[7] = AUC in Sprague-Dawley rat at 10 mg/kg, iv by LC-MS/MS analysis; assay type: ADME, organism-based; parameters: dose 10 mg/kg, route intravenous; conditions: plasma
[8] = Mean residence time in Sprague-Dawley rat at 10 mg/kg, iv by LC-MS/MS analysis; assay type: ADME, organism-based; parameters: dose 10 mg/kg, route intravenous; conditions: in vivo
[9] = Plasma protein binding in human at 10 to 50 uM after 10 mins by HPLC analysis; assay type: ADME, cell-free; conditions: read-out: PPB (converted)
[10] = system: Influenza A virus; experiment: microbe, parasite or virus in culture; conditions: A/Jena/5258/2009(H1N1), MDCK, 48 h
[11] = Oral bioavailability in fasted mouse at 10 mg/kg by LC-MS/MS analysis; assay type: ADME, organism-based; conditions: in vivo
[12] = target: albumin (Homo sapiens, UniProt P02768); experiment: Binding affinity to albumin (unknown origin) at 10 to 50 uM after 10 mins by HPLC analysis; assay type: ADME; conditions: read-out: PPB (converted)
albumin, sequence (P02768 whole entry): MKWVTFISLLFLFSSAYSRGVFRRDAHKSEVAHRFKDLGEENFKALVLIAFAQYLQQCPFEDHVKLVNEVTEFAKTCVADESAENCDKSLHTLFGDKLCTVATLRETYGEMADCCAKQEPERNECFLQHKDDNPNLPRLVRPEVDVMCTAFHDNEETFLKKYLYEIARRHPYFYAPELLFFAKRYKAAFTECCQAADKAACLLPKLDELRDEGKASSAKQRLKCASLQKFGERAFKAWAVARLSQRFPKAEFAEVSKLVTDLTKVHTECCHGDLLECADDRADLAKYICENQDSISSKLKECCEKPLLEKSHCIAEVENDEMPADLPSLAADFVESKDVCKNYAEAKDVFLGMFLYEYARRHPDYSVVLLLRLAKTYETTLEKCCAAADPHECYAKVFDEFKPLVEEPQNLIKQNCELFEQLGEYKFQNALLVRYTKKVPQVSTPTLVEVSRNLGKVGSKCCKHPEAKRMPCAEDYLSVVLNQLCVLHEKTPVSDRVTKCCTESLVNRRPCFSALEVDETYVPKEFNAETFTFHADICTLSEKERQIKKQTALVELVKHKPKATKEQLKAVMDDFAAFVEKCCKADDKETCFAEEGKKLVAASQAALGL

[13] = Tmax in Sprague-Dawley rat at 50 mg/kg, po by LC-MS/MS analysis; assay type: ADME, organism-based; parameters: dose 50 mg/kg, route oral; conditions: in vivo
[14] = in vivo; conditions: Sprague-Dawley, rat, po, 50 mg/kg; remark: listed apart in the source
Description: Half life in Sprague-Dawley rat at 50 mg/kg, po by LC-MS/MS analysis

[15] = system: Influenza A virus; experiment: Antiviral activity against Influenza A virus H1N1; assay type: functional, organism-based
[16] = system: Rattus norvegicus; experiment: Bioavailability in Sprague-Dawley rat at 10 mg/kg, iv by LC-MS/MS analysis; assay type: ADME, organism-based; conditions: in vivo
[17] = Mean residence time in Sprague-Dawley rat at 50 mg/kg, po by LC-MS/MS analysis; assay type: ADME, organism-based; parameters: dose 50 mg/kg, route oral; conditions: in vivo
[18] = AUC in Sprague-Dawley rat at 50 mg/kg, iv by LC-MS/MS analysis; assay type: ADME, organism-based; parameters: dose 50 mg/kg, route intravenous; conditions: plasma
[19] = Oral bioavailability in fed mouse at 10 mg/kg by LC-MS/MS analysis; assay type: ADME, organism-based; conditions: in vivo
[20] = Half life in Sprague-Dawley rat plasma; assay type: ADME, cell-free
[21] = in vivo; conditions: Sprague-Dawley, rat, po, 10 mg/kg
[22] = system: Influenza A virus; assay type: functional, organism-based; conditions: A/Jena/5258/2009(H1N1), MDCK
[23] = Solubility of the compound in phosphate buffer saline at pH 2.0 after 20 mins by HPLC analysis; assay type: physicochemical
[24] = Prodrug activation in pig liver cytosol assessed as formation of oseltamivir carboxylate per mg protein at 500 uM after 30 mins by HPLC analysis; assay type: tissue-based, Sus scrofa; conditions: 0.5 h
[25] = Prodrug activation in pig liver assessed as carboxylesterase-mediated oseltamivir carboxylate formation per mg protein at 500 uM after 30 mins by HPLC analysis; assay type: tissue-based, Sus scrofa; conditions: 0.5 h
[26] = Solubility of the compound in phosphate buffer saline at pH 9.0 after 20 mins by HPLC analysis; assay type: physicochemical
[27] = system: Liver microsome; experiment: Prodrug activation in human liver microsomes assessed as formation of oseltamivir carboxylate per mg protein at 500 uM after 30 mins by HPLC analysis; conditions: 0.5 h
[28] = Solubility of the compound in phosphate buffer saline at pH 7.4 after 20 mins by HPLC analysis; assay type: physicochemical
[29] = Prodrug activation in 9000g pig liver supernatant assessed as formation of oseltamivir carboxylate per mg protein at 500 uM after 30 mins by HPLC analysis; assay type: tissue-based, Sus scrofa; conditions: 0.5 h
[30] = Prodrug activation in pig liver mitochondria assessed as formation of oseltamivir carboxylate per mg protein at 500 uM after 30 mins by HPLC analysis; parameters: species or system Sus scrofa; conditions: 0.5 h
[31] = system: Liver; experiment: Prodrug activation in 9000g human liver supernatant assessed as formation of oseltamivir carboxylate per mg protein at 500 uM after 30 mins by HPLC analysis; assay type: tissue-based; conditions: 0.5 h
[32] = Prodrug activation in pig liver microsomes assessed as formation of oseltamivir carboxylate per mg protein at 500 uM after 30 mins by HPLC analysis; parameters: species or system Sus scrofa, Microsome; conditions: 0.5 h
[33] = Prodrug activation in human liver mitochondria assessed as formation of oseltamivir carboxylate per mg protein at 500 uM after 30 mins by HPLC analysis; conditions: 0.5 h
[34] = Prodrug activation in human liver cytosol assessed as formation of oseltamivir carboxylate per mg protein at 500 uM after 30 mins by HPLC analysis; assay type: tissue-based; conditions: 0.5 h
[35] = target: T1, Neuraminidase (Influenza A virus, UniProt B4URF0); parameters: species or system A/HH/1580/09(H1N1)
T1 sequence (B4URF0 whole entry): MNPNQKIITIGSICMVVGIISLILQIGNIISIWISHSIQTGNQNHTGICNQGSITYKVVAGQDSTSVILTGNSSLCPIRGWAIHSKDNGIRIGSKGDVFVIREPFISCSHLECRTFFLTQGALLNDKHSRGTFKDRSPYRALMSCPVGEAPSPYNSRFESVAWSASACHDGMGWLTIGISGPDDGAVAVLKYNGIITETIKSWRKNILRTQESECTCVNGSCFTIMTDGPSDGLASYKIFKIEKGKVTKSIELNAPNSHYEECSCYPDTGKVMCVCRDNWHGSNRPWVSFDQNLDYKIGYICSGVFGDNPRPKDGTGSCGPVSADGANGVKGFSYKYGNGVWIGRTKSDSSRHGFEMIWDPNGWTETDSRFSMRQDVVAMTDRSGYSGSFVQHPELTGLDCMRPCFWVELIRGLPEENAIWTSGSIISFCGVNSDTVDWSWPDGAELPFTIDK

[36] = target: T1, Neuraminidase; parameters: species or system A/Hong Kong/68(H3N2)
[37] = target: T1, Neuraminidase; parameters: species or system A/Rheinland-Pfalz/3911/03(H3N2)
[38] = target: T1, Neuraminidase; parameters: species or system A/Berlin/10/04(H3N2)
[39] = target: T1, Neuraminidase; parameters: species or system A/Jena/5555/09(H1N1)
[40] = target: T1, Neuraminidase; parameters: species or system A/Jena/5258/2009(H1N1)
[41] = target: T1, Neuraminidase; parameters: species or system A/Sachsen/6/02(H3N2)

Row | Structure (SMILES) | IC [1] | bioavailability [2] [%] | IC50 [4] [nM] | Cmax [5] [ng/mL] | Stability [6] | EC50 [10] [nM] | fraction unbound at 10 min, up to 50 µM [12] | Tmax [13] [h] | half-life [14] [h] | IC50 [15] [nM] | MRT [17] [h] | AUC [18] [ng·h/mL] | solubility at 20 min [23] [mM] | solubility at 20 min [26] [mM] | Drug metabolism [27] [nmol/min/mg] | solubility at 20 min [28] [mM] | Drug metabolism [30] [nmol/min/mg] | Drug metabolism [31] [nmol/min/mg] | Drug metabolism [33] [nmol/min/mg] | further results
1 | CC(=O)N[C@H]1[C@H]([C@H](O)[C@H](O)CO)OC(C(=O)O)=C[C@@H]1N=C(N)N [ZANAMIVIR] | <= 200 ug ml-1 | – | – | – | – | – | – | – | – | – | – | – | – | – | – | – | – | – | – | –
2 | CCC(CC)O[C@@H]1C=C(C(=O)O)C[C@H](NC(=N)N)[C@H]1NC(C)=O | 0.55 mM | 1.9 | 0.8 | 300 | Stable | 3120 | 0.996 | 1.72 | 1.22 | 0.22 | 2.2 | 450 | – | – | – | – | – | – | – | half-life [3]: 1.57 h; AUC [7]: 4800 ng·h/mL; MRT [8]: 0.983 h; fraction unbound at 10 min, up to 50 µM [9]: 0.914; bioavailability [11]: 48%; F [16]: 100%; bioavailability [19]: 23%
3 | CCOC(=O)C1=C[C@@H](OC(CC)CC)[C@H](NC(C)=O)[C@@H](N)C1 [OSELTAMIVIR] | – | – | – | – | – | – | – | – | – | – | – | – | – | – | – | – | – | – | – | half-life [20]: 0.733 h; bioavailability [21]: 36%
4 | CC(=O)N[C@H]1[C@H]([C@H](O)[C@H](O)CO)OC(C(=O)O)=C[C@@H]1NC(=N)N [ZANAMIVIR] | – | – | – | – | – | 6560 | – | – | – | – | – | – | – | – | – | – | – | – | – | Activity [22]: Active
5 | CCC(CC)O[C@@H]1C=C(C(=O)O)C[C@H](N)[C@H]1NC(C)=O [OSELTAMIVIR CARBOXYLATE] | <= 200 ug ml-1 | – | 0.24 | – | – | 5210 | – | – | – | 0.12 | – | – | – | – | – | – | – | – | – | Activity [22]: Active
6 | Br.CCOC(=O)C1=C[C@@H](OC(CC)CC)[C@H](NC(C)=O)[C@@H](NC(C)=N)C1 | – | 0.8 | – | 200 | Stable | – | 0.652 | 0.517 | 0.7 | – | 1.62 | 283 | > 50 | > 50 | 0.64 | > 50 | 0.15 | 0.2 | 0.56 | Drug metabolism [24]: 0.66 nmol/min; Drug metabolism [25]: 0.83 nmol/min/mg; Drug metabolism [29]: 0.42 nmol/min/mg; Drug metabolism [32]: 0.3 nmol/min/mg
7 | CCOC(=O)C1=C[C@@H](OC(CC)CC)[C@H](NC(C)=O)[C@@H](NC(=N)N)C1 | – | 1.3 | – | 100 | Stable | – | 0.699 | 1 | 1.45 | – | 2.62 | 217 | > 50 | > 50 | 1.06 | > 50 | 0.21 | 0.32 | 0.79 | Drug metabolism [25]: 1.35 nmol/min/mg; bioavailability [21]: 2.1%; Drug metabolism [29]: 0.22 nmol/min/mg; Drug metabolism [32]: 0.22 nmol/min/mg; Drug metabolism [34]: 0.5 nmol/min/mg
8 | CCOC(=O)C1=C[C@@H](OC(CC)CC)[C@H](NC(C)=O)[C@@H](N/C(C)=N/O)C1 | – | 31.4 | – | 3100 | Stable | – | 0.733 | 1.37 | 1.85 | – | 3.43 | 13300 | > 50 | 23 (≈ 8.5 mg/mL) | 2.3 | 23 (≈ 8.5 mg/mL) | 0.51 | 0.56 | 0.29 | Drug metabolism [24]: 0.4 nmol/min
9 | CCC(CC)O[C@@H]1C=C(C(=O)O)C[C@H](NC(C)=N)[C@H]1NC(C)=O | 0.53 mM | 3.9 | 1.82 | 600 | Stable | 1900 | 0.978 | 0.733 | 1.13 | 0.4 | 2.1 | 1880 | > 50 | > 50 | – | > 50 | – | – | – | IC50 [35]: 0.3 nM; half-life [3]: 0.567 h; IC50 [36]: 1.87 nM; IC50 [37]: 1.79 nM; IC50 [38]: 1.3 nM; IC50 [39]: 0.44 nM; MRT [8]: 0.533 h; fraction unbound at 10 min, up to 50 µM [9]: 0.963; IC50 [40]: 0.45 nM; F [16]: 100%; IC50 [41]: 2.3 nM
10 | CCOC(=O)C1=C[C@@H](OC(CC)CC)[C@H](NC(C)=O)[C@@H](NC(N)=NO)C1 | – | 1.5 | – | 100 | Stable | – | 0.625 | 1.52 | 1.15 | – | 2.8 | 317 | > 50 | > 50 | 1.76 | > 50 | – | 0.76 | 1.74 | Drug metabolism [34]: 0.28 nmol/min/mg
